The values that follow come from PMC10458307, “New Scaffolds of Proteasome Inhibitors: Boosting Anticancer Potential by Exploiting the Synergy of In Silico and In Vitro Methodologies” (Pharmaceuticals, 2023).

“And” between values parts separate entries of the source, which are not always exact repeats. Equal values may be shown once.

One data set has as its system HT-29 cells. Put plainly: Cell viability, MTT assay, HT-29. The settings on record: 72 h; for IC50: Homo sapiens, HT-29, mean ± SD; for percentage of cell viability, MTT, HT-29: at 100 µM. The class given is cell-based, human. The procedure: (§1) Whenever possible, additional concentrations were tested and IC50 values were determined.
(§2) Human leukemia Jurkat E6.1 T-cell line and K562-cell line were originally obtained from ATCC Collections (Manassas, VA, USA); human HT-29 and HCT116 colorectal carcinoma-cell lines were obtained from ECACC (Porton Down, Porton, UK). Cells were passaged for less than 6 months after and routinely tested for mycoplasma contamination using Mycoalert detection kit (Lonza, Basel, Switzerland). Jurkat, K562, and HT-29 cells were maintained in Roswell Park Memorial Institute (RPMI) 1640 with GlutaMAX™, supplemented with 1% antibiotic mixture (100 µg/mL streptomycin and 100 U/mL penicillin) and 10% heat-inactivated foetal bovine serum (FBS) (all from Gibco, Thermo Fisher Scientific, Paisley, UK). HCT116 cells were maintained in Dulbecco’s Modified Eagle Medium (DMEM) with GlutaMAX™, supplemented with 1% antibiotic mixture (100 µg/mL streptomycin and 100 U/mL penicillin) and 10% heat-inactivated FBS (all from Gibco, Thermo Fisher Scientific, Paisley, UK). Incubation was performed at 37 °C in a 5% CO2 atmosphere. Cells were routinely passaged every 2 or 3 days at 70–90% confluence; TrypLE Express (Gibco, Thermo Fisher Scientific, Paisley, UK) was used as dissociation agent for adherent cells. Trypan blue (Gibco, Thermo Fisher Scientific, Paisley, UK) was used to assess cell viability using the dye exclusion test.
(§3) To assess cell viability, the MTT assay was performed. Jurkat/K562/HT-29/HCT116 cell lines were seeded in triplicate (10,000 cells/well) in 96-well plates with 50 µL of complete medium and incubated at 37 °C, 5% CO2 for 24 h to allow the cells to adhere to the plate (in the case of adherent cells). […] Untreated cells seeded in triplicate were used as control. The blank was performed in triplicate with 100 µL of culture medium. The cells were incubated with the compounds, in triplicate, in 100 µL of total volume, at 37 °C, 5% CO2 for 72 h. […] In suspension cells (Jurkat), 25 µL of MTT were directly added to each well and, after 3 h 30 m of incubation, 100 µL of DMSO were added to solubilize the formazan crystals; in adherent cells (HT-29 and HCT116), the culture medium was removed, 25 µL of MTT were added to each well and, after 3 h 30 m of incubation, upon MTT removal, 100 µL of DMSO were added to solubilize the formazan crystals. After 15 min, the samples absorbance was measured at 570 nm and the percentage of cell viability was determined.

Data set [1] addresses T1, isolated human 20S proteasome, C-L activity (Homo sapiens, UniProt P28072).
T1 construct: human purified erythrocyte-derived 20S proteasome; purchased Enzo Life Sciences, Inc; host or cells: human erythrocytes (natural source)
Description: Proteasome inhibition assay in isolated human 20S proteasomes (Proteasome-Glo), C-L activity. The class given is biochemical. As to conditions: mean ± SD. The text has this: In this assay, the peptide substrates are bound to aminoluciferin (Suc-LLVY-AML for CT-L activity, Z-nLPnLD-AML for C-L, and Z-LRR-AML for T-L), leading the cleavage of these substrates by the proteasome to the release of free aminoluciferin, which is the substrate of the buffer-contained luciferase.
To evaluate human purified erythrocyte-derived 20S proteasome inhibitory activity of the chosen compounds, the Proteasome-Glo™ 3-substrate system (Promega Corporation, Madison, WI, USA) was employed. The Proteasome-Glo™ reagents of the three proteolytic activities were prepared according to the manufacturer’s instructions, aliquoted, and stored at either −20 °C or 4 °C, avoiding freezing–thaw cycles. […] The purified 20S proteasome (Enzo Life Sciences, Inc., Farmingdale, NY, USA) was diluted in HEPES buffer 10 mM, pH 7.4, to a concentration experimentally adjusted to the signal/noise ratio obtained with each particular lot of Proteasome-Glo™ reagent, in order to have a good compromise between sensitivity and linear response. […] All assays were performed in white-walled multiwell plates (Thermo Scientific™ Sterilin™ White Microtiter™ plates, Thermo Fisher Scientific, Paisley, UK) in duplicates. The proteasome solution (25 μL) was added to each well first, then the diluted solutions of the assayed compounds (25 μL), and lastly the Proteasome-Glo™ Reagent (50 μL). […] Reagents were added to the plate well on ice, and the plate was then transferred to the plate luminometer (SpectraMax®, Molecular Devices, LLC, San Jose, CA, USA) set at 37 °C, gently mixed for 30 s, and the measurements were immediately started in kinetic mode, with data collected every 5 min for at least 60 min.
All compounds were dissolved in DMSO at a concentration of 10 mM and stored at −20 °C or 4 °C. Solutions of the test compounds were prepared at their adequate dilutions in 10 mM HEPES buffer pH 7.6 before each experiment.
To calculate the proteasome activity over time, the value of mean relative luminescence units (RLU) of blank wells at each respective time point was subtracted, and then the ratio between mean RLU of the sample and mean RLU of the positive control wells was calculated for each time point and expressed as percentage.

Data set [2] in a line: Cell viability, MTT assay, K562. The class given is cell-based, human. The settings on record: human, K562 leukemia cells, read-out: percentage of cell viability, MTT, K562; for viability at 72 h, 10 µM: at 10 µM; for viability at 72 h, 100 µM: at 100 µM. As to the method:
as §1, §2, §3

The target of data set [3] is T2, 20S proteasome in K562 cell lysates, C-L activity (Homo sapiens, UniProt P28072).
T2 sequence (P28072 35-239 limits assumed): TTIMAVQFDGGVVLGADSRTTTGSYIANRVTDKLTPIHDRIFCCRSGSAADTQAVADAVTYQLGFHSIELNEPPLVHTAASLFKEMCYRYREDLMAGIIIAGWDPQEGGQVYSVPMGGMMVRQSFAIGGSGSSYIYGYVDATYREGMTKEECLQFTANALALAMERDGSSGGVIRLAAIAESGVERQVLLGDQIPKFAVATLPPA
T2 sequence (Q99436 44-277 partner): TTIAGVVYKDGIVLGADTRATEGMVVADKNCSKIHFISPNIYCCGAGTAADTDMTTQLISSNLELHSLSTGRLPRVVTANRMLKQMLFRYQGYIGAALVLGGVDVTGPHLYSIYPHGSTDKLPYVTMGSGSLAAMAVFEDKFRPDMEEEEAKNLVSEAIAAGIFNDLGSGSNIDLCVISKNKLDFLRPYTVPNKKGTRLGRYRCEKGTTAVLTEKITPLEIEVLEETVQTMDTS
Put plainly: Proteasome inhibition assay in cell lysates, K562, C-L. The settings on record: for inhibition at 10 µM: read-out: percentage of proteasome inhibition, C-L, cell lysates K562, at 10 µM; for inhibition at 100 µM: read-out: percentage of proteasome inhibition, C-L, cell lysates K562, at 100 µM.
Description: Cells were obtained from several cultured cell lines: Jurkat, K562, HT-29, and HCT116. Pellets with 20 × 10^6 cells were prepared and washed with cold sterile phosphate buffered saline (PBS), 1×, pH 7.4 (Gibco, Thermo Fisher Scientific, Paisley, UK). The preparation of the lysates from several cell lines was performed based on the methodology described by Gavioli et al. [67]. Cells were resuspended in buffer containing 50 mM TRIS-HCl pH 7.4 (Nzytech, Lisboa, Portugal), 5 mM MgCl2 (≥98% purity, Merck, Hamburg, Germany), 1 mM DTT (Merck, Hamburg, Germany), 2 mM ATP (≥98% purity, Enzo Life Sciences Inc., Farmingdale, NY, USA), and 250 mM saccharose (Merck, Hamburg, Germany). Glass beads (Merck, Hamburg, Germany) equivalent to the volume of the cell suspension were added, and the mixture was vortexed for 2 min at 4 °C. Beads and cell debris were removed using 5 min centrifugation at 1000× g and 4 °C, followed by 20 min of centrifugation at 10,000× g at 4 °C. Cell lysates containing proteasomes were resuspended in “activity buffer” [50 mM TRIS-HCl (pH 7.4), 5 mM MgCl2, 1 mM DTT, 2 mM ATP (≥98% purity, Enzo Life Sciences Inc., Farmingdale, NY, USA), and 500 µM EDTA (≥98% purity, Merck, Hamburg, Germany)]. Protein concentration was determined using the Pierce™ BCA protocol (Thermo Fisher Scientific, Rockford, IL, USA). […] DMSO was added in an equal volume as used for the untreated compounds as a way to assess/control its influence in the assay. Untreated cells were used as control. In each well of a 96-well plate, 25 µL of lysate were seeded in duplicate with 25 µL of the compound to test; in the control, 25 µL of activity buffer were added to the 25 µL of lysate. A blank (50 µL of activity buffer) was added to the wells in quadruplicate. Cell lysates, pre-treated or not with different concentrations of the test compounds, were incubated for 30 min at 37 °C. […] Stock solutions (10 mM) of each substrate were prepared in DMSO, diluted in activity buffer, and 50 µL were added to all wells (final concentration of each substrate = 100 µM), followed by an incubation at 37 °C for 60 min. Samples fluorescence was measured at an excitation wavelength of 360 nm and emission of 465 nm; the fluorescence measures were performed using the GloMax-Multi + Detection System (Promega Corp., Madison, WI, USA). Activity was evaluated in fluorescence units, after being converted to percentage of proteasome inhibition and, whenever possible, expressed as IC50 by plotting the inhibition data of each compound at different concentrations against the log of the concentration of the inhibitor, using the GraphPad Prism software version 7. At least eight different concentrations of the test compounds were used.

A further data set has as its system K562 cells. Put plainly: Cell viability, MTT assay, K562. The class given is cell-based, human. The settings on record: at 100 µM, 72 h. As to the method: as §1, §2, §3
(Formazan colour is commonly taken as a measure of viable cells.)

For data set [4], the system named is proteasome C-L active site. The settings on record: literature values; ref 34 (bortezomib), 35 (ixazomib); cited from earlier work.
The test system of data set [5] is proteasome CT-L active site. As to conditions: literature values of known proteasome inhibitors; reference per compound; cited from earlier work.
Where [6] appears, read: at 100 µM, Table 2 legend: bortezomib 10 µM.
Where [7] appears, read: Table 2 legend: bortezomib 10 µM.

By IC50 is commonly meant the midpoint of a concentration-inhibition curve. Consider `C#CCCN1CCN(c2ccc(-n3c(=O)ccc4cnc5ccc(-c6ccc(N)nc6)cc5c43)cc2C(F)(F)F)CC1` [Compound 4, 9-(6-Aminopyridin-3-yl)-1-(4-(4-(but-3-yn-1-yl)piperazin-1-yl)-3-(trifluoromethyl)phenyl)benzo[h][1,6]naphthyridin-2(1H)-one], for which the IC50 came out at 43 µM with HT-29 cells and 41.2 µM in data set [1]. For the same compound, the “percentage of cell viability, MTT, HT-29” value with HT-29 cells is reported as 34%.
As usually defined, the viability is the share of living cells, or the viability signal relative to a control. Broadly, the inhibition is the change of the read-out against control, counted positive when it falls. With `Cc1ccc(/C(=N/NS(=O)(=O)c2ccc([N+](=O)[O-])cc2)Sc2cc(Cl)c(C)cc2S(N)(=O)=O)cc1` [Compound 3], in data set [2], the viability at 72 h, 10 µM came to 100% and the viability at 72 h, 100 µM came out at 100%. The “percentage of proteasome inhibition, C-L, cell lysates K562” value (from here on “percentage of proteasome inhibition, C-L”) in data set [3] (setting [6]) was found to be 39%. In addition, the inhibition at 10 µM in data set [3] is 14.2%. Moreover, in data set [3] (setting [7]), the inhibition at 100 µM stood at 38.8%. The IC50 in data set [1] was found to be 51.1 µM.
With `Cc1ccc2ccccc2c1CSc1ncnc2c1ncn2C1OC(CO)C(O)C1O` (stereo not drawn) [Compound 1], the “percentage of cell viability, MTT, K562” value with K562 cells turned out to be 18%. In data set [2], the viability at 72 h, 10 µM turned out to be 93.1% and the viability at 72 h, 100 µM came out at 18.2%. The “percentage of proteasome inhibition, C-L” value in data set [3] (setting [6]) turned out to be 28%. The inhibition at 10 µM in data set [3] stood at 0%. Also, the inhibition at 100 µM in data set [3] (setting [7]) was 28.2%. Also, in the data set with HT-29 cells, it took 61.7 µM to reach half-maximal inhibition (IC50) and the “percentage of cell viability, MTT, HT-29” value was 23%.
Consider `CC(C)C[C@H](NC(=O)[C@H](Cc1ccccc1)NC(=O)c1cnccn1)B(O)O` [Bortezomib, bortezomib, reference compound], for which the figures for the IC50 (in data set [4]; in data set [5]; with HT-29 cells) were 0.074 µM, 7 nM and 0.00973 µM, respectively. In addition, in data set [2], the viability at 72 h, 10 µM came out at 0%. In addition, in data set [2], the viability at 72 h, 100 µM was 0%. Besides, the “percentage of proteasome inhibition, C-L” value is 94.99% in data set [3] (at 10 µM); 97.19% and 97% in data set [3] (setting [6]).
In the case of `CC(C)c1nc(CN(C)C(=O)N[C@@H](CCN2CCOCC2)C(=O)N[C@H](CC[C@H](Cc2ccccc2)NC(=O)OCc2cncs2)Cc2ccccc2)cs1` [Compound 5, cobicistat, reference compound], in the data set with HT-29 cells, the IC50 was determined as 70.5 µM and the “percentage of cell viability, MTT, HT-29” value was found to be 25%.
With `O=C1c2ccccc2C(=O)c2c(Nc3ccc(S(=O)(=O)N(CCO)CCO)cc3)ccc(O)c21` [Compound 2], the “percentage of cell viability, MTT, K562” value with K562 cells worked out at 86.52%. Besides, the viability at 72 h, 10 µM in data set [2] was 86.3%. In addition, in data set [3] (setting [6]), the “percentage of proteasome inhibition, C-L” value is on record as 63%. Further, the inhibition at 10 µM in data set [3] was determined as 0%. Also, the inhibition at 100 µM in data set [3] (setting [7]) was determined as 63.2%. For the same compound, in the data set with HT-29 cells, the “percentage of cell viability, MTT, HT-29” value was 65%. The IC50 in data set [1] was 2.42 µM.
